According to ChEMBL document CHEMBL5715954, “Silencing c-Myc translation as a therapeutic strategy through targeting PI3Kδ and CK1ε in hematological malignancies” (Blood, 2017):

How the values were obtained:
Set-up in all cases: scale not given: the % may be the effect or the level left
[1] = molecular target: T1, G protein-coupled receptor kinase 3 (Homo sapiens) (UniProt P35626); assay: Inhibition of human GRK3 assessed as enzyme activity at 1 uM using casein as substrate preincubated for 20 mins followed by [gamma-33P]-ATP addition and measured after 120 mins by radiometric Hot-SpotSM Kinase assay relative to control
T1 sequence (whole entry): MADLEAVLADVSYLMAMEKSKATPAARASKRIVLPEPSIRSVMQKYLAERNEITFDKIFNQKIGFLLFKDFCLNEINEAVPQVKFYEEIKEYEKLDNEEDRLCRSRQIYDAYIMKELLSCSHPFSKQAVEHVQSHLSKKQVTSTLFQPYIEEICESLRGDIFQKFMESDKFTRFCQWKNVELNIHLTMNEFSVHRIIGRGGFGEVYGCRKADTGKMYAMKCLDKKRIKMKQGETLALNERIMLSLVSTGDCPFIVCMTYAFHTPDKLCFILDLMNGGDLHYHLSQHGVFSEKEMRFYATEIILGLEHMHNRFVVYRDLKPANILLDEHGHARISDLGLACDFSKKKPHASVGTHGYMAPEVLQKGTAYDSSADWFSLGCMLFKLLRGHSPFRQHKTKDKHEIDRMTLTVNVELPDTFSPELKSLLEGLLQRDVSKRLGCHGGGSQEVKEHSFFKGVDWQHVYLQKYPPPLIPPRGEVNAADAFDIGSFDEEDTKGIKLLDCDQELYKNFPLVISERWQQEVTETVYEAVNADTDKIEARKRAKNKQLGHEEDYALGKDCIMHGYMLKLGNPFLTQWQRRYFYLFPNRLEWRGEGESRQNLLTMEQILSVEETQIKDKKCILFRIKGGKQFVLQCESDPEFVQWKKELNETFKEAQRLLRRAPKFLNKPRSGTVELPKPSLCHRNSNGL

[2] = molecular target: Receptor tyrosine-protein kinase erbB-4 (Homo sapiens) (UniProt Q15303); assay: Inhibition of human ERBB4 assessed as enzyme activity at 1 uM using poly[Glu:Tyr] (4:1) as substrate preincubated for 20 mins followed by [gamma-33P]-ATP addition and measured after 120 mins by radiometric Hot-SpotSM Kinase assay relative to control
Chain of Receptor tyrosine-protein kinase erbB-4 (Homo sapiens) (Q15303 whole entry): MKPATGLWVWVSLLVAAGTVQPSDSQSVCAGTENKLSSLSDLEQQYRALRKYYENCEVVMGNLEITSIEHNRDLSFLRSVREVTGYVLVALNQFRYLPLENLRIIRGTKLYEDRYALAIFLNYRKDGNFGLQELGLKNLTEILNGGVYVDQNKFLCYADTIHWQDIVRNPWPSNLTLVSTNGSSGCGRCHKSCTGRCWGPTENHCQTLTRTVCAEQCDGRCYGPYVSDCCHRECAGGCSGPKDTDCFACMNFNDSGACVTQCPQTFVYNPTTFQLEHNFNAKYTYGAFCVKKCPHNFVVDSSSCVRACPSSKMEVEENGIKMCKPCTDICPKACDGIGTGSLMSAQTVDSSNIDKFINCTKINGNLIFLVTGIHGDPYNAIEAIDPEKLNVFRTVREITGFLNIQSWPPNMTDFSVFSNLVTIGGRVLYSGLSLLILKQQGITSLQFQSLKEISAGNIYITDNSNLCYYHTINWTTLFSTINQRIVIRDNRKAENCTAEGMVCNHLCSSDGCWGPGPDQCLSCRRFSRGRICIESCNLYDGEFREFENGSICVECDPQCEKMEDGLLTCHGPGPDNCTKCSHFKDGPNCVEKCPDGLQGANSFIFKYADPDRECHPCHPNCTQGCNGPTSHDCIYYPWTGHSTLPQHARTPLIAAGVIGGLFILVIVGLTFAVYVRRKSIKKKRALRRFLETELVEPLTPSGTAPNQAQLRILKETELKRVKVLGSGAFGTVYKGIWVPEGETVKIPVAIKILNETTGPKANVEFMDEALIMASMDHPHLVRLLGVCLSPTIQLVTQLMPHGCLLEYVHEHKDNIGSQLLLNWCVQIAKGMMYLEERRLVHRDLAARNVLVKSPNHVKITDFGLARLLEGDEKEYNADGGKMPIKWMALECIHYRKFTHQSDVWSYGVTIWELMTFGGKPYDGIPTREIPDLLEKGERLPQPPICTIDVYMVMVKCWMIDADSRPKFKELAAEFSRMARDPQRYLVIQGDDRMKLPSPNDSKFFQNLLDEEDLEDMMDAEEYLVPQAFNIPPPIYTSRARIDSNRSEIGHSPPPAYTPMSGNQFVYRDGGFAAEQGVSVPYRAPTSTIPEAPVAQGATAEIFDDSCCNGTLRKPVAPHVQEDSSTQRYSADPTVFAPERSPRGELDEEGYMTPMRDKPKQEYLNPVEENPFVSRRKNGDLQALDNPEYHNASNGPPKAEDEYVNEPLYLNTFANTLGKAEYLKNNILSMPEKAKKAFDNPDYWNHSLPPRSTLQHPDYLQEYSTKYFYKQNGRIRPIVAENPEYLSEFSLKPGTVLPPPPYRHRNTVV

[3] = molecular target: Ribosomal protein S6 kinase alpha-2 (Homo sapiens) (UniProt Q15349); assay: Inhibition of human RSK3 assessed as enzyme activity at 1 uM using KKLNRTLSVA as substrate preincubated for 20 mins followed by [gamma-33P]-ATP addition and measured after 120 mins by radiometric Hot-SpotSM Kinase assay relative to control
Chain of Ribosomal protein S6 kinase alpha-2 (Homo sapiens) (Q15349 whole entry): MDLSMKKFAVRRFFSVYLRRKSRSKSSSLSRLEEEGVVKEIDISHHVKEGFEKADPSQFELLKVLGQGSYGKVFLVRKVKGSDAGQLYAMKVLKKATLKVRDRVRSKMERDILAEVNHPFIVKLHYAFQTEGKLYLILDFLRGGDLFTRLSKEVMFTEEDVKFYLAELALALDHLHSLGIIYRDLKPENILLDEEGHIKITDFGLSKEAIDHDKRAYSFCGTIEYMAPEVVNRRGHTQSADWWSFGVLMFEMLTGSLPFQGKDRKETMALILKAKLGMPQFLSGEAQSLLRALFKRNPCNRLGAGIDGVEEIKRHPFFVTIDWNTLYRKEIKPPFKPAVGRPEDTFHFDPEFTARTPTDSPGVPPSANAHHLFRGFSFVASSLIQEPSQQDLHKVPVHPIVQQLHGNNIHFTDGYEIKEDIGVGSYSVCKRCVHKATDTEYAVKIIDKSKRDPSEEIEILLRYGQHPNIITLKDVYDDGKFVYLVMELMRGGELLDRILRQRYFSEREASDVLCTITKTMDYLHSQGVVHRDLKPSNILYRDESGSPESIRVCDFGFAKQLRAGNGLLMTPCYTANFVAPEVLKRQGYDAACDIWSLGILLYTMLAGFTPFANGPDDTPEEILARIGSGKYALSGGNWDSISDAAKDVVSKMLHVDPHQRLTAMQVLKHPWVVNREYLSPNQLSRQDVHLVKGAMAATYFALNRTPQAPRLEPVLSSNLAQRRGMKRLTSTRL

[4] = molecular target: Serine/threonine-protein kinase SIK3 (Homo sapiens) (UniProt Q9Y2K2); assay: Inhibition of human SIK3 assessed as enzyme activity at 1 uM using AMARAASAAALARRR as substrate preincubated for 20 mins followed by [gamma-33P]-ATP addition and measured after 120 mins by radiometric Hot-SpotSM Kinase assay relative to control
Chain of Serine/threonine-protein kinase SIK3 (Homo sapiens) (Q9Y2K2 whole entry, looked up): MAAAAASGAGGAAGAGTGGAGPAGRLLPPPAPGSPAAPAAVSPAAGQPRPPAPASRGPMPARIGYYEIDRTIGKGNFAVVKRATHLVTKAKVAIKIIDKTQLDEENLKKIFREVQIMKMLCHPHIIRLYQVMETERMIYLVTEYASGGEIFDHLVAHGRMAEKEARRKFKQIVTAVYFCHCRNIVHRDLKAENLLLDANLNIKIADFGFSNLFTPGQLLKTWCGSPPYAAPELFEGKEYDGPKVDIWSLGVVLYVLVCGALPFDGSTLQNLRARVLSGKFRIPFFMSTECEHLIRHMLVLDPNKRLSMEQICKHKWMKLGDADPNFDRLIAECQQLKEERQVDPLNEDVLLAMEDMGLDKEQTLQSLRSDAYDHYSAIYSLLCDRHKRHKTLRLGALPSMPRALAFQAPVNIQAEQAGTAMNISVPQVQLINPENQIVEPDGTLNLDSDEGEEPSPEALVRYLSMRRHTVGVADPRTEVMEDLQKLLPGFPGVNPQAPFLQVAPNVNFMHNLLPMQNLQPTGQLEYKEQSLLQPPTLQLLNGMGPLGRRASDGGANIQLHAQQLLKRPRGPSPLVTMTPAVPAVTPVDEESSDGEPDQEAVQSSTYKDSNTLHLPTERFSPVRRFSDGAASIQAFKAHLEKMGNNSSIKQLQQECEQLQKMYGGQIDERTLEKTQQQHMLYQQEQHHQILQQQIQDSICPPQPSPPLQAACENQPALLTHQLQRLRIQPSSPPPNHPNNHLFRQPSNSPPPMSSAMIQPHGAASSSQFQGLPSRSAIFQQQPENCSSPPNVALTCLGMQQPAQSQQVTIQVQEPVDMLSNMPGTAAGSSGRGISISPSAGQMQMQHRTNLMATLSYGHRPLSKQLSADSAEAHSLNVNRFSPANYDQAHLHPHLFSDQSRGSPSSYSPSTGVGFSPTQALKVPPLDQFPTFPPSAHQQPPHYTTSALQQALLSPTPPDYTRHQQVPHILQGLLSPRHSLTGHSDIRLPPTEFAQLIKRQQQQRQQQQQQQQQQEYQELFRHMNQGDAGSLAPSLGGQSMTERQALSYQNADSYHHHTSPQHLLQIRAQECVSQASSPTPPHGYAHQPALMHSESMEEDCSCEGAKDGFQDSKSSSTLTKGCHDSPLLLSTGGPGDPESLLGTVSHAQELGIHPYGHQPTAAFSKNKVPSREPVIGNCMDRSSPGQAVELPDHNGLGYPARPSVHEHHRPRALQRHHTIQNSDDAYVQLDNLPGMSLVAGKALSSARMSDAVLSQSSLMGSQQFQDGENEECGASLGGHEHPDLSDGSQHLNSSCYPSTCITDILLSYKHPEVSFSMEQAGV

[5] = molecular target: Serine/threonine-protein kinase MARK2 (Homo sapiens) (UniProt Q7KZI7); assay: Inhibition of human PAR-1Ba assessed as enzyme activity at 1 uM using KKKVSRSGLYRSPSMPENLNRPR as substrate preincubated for 20 mins followed by [gamma-33P]-ATP addition and measured after 120 mins by radiometric Hot-SpotSM Kinase assay relative to control
Chain of Serine/threonine-protein kinase MARK2 (Homo sapiens) (Q7KZI7 whole entry): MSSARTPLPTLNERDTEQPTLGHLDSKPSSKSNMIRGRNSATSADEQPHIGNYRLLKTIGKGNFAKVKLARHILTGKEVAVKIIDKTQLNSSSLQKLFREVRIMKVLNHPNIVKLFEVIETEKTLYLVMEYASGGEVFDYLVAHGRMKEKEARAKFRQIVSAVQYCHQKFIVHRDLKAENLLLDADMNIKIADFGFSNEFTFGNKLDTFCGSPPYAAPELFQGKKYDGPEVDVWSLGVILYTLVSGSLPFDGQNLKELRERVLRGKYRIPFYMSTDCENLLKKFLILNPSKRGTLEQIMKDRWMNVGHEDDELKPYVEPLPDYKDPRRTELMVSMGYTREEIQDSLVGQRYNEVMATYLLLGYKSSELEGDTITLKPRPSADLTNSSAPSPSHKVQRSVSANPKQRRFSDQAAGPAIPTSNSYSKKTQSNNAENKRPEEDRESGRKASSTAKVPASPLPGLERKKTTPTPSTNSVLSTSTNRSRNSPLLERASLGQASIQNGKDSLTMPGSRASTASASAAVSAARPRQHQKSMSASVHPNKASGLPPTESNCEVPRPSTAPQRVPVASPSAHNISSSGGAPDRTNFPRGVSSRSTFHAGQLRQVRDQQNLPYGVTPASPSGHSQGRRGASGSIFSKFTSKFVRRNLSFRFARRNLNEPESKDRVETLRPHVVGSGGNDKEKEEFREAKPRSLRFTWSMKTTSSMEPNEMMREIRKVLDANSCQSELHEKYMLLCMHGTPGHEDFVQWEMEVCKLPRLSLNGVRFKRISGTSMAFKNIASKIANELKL

[6] = molecular target: T2, Ephrin type-A receptor 3 (Homo sapiens) (UniProt P29320); assay: Inhibition of human EPHA3 assessed as enzyme activity at 1 uM using poly[Glu:Tyr] (4:1) as substrate preincubated for 20 mins followed by [gamma-33P]-ATP addition and measured after 120 mins by radiometric Hot-SpotSM Kinase assay relative to control
T2 sequence (whole entry): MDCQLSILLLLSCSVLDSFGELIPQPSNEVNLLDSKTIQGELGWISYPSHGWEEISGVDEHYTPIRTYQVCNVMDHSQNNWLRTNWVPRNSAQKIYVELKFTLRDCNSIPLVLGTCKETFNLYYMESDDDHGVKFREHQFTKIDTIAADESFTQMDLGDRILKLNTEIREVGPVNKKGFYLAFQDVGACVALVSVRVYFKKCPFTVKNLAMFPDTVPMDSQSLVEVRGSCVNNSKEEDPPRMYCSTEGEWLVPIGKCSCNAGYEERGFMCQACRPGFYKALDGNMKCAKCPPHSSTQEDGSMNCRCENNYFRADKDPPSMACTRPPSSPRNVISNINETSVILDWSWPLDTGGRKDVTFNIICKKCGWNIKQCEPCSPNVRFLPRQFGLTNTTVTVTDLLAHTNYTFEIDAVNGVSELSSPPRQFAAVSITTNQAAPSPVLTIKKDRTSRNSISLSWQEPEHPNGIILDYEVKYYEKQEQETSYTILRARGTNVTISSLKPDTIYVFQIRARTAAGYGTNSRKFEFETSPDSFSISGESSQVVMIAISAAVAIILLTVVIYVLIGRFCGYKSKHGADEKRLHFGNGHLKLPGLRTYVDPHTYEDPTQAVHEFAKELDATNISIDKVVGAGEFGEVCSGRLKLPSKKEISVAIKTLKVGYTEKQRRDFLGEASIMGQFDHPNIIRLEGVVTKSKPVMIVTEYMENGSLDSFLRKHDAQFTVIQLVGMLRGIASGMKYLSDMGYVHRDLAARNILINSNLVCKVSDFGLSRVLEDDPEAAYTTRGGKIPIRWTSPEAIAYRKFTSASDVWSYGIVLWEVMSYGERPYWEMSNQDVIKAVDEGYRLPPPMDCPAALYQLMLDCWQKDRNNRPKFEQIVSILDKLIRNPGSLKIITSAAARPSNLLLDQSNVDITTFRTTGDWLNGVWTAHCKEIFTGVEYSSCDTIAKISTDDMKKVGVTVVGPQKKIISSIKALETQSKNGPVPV

[7] = molecular target: Serine/threonine-protein kinase 25 (Homo sapiens) (UniProt O00506); assay: Inhibition of human STK25 assessed as enzyme activity at 1 uM using myelin basic protein as substrate preincubated for 20 mins followed by [gamma-33P]-ATP addition and measured after 120 mins by radiometric Hot-SpotSM Kinase assay relative to control
Chain of Serine/threonine-protein kinase 25 (Homo sapiens) (O00506 whole entry, looked up): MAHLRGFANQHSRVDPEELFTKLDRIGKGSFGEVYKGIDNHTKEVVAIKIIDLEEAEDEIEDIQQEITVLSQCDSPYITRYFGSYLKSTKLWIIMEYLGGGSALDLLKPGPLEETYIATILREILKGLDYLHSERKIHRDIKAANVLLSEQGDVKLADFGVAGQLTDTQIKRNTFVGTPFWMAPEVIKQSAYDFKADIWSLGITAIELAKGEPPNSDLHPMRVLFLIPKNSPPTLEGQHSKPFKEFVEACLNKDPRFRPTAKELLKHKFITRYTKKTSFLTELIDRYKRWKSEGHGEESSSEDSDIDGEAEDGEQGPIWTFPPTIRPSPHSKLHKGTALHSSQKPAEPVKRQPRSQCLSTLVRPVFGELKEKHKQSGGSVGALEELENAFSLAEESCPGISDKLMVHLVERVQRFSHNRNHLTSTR

[8] = molecular target: T3, cAMP-dependent protein kinase catalytic subunit PRKX (Homo sapiens) (UniProt P51817); assay: Inhibition of human PRKX assessed as enzyme activity at 1 uM using LRRASLG as substrate preincubated for 20 mins followed by [gamma-33P]-ATP addition and measured after 120 mins by radiometric Hot-SpotSM Kinase assay relative to control
T3 sequence (whole entry): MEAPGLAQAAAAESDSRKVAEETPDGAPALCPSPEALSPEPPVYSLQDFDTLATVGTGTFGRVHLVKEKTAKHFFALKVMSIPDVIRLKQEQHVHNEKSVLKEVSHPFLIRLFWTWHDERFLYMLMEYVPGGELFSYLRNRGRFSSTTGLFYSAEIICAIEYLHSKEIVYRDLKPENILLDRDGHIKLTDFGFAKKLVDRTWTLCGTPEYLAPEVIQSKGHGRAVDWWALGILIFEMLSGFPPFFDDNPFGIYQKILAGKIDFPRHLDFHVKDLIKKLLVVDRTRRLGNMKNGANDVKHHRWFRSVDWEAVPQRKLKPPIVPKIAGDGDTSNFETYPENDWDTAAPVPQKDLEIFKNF

| SMILES | Activity [1] [%] | Activity [2] [%] | Activity [3] [%] | Activity [4] [%] | Activity [5] [%] | Activity [6] [%] | Activity [7] [%] | Activity [8] [%] |
| --- | --- | --- | --- | --- | --- | --- | --- | --- |
| CC[C@H](Nc1ncnc2[nH]cnc12)c1nc2cccc(F)c2c(=O)n1-c1ccccc1 | 95.3 | 101 | 98.3 | 93.8 | 94.3 | 93.4 | 102 | 97.6 |
| C[C@H](Nc1ncnc2nc[nH]c12)c1cc2cccc(Cl)c2c(=O)n1-c1ccccc1 | 91.5 | 97.4 | 94.1 | 92.6 | 95.8 | 93.9 | 97 | 98.6 |
| CC(C)Oc1ccc(-c2nn([C@@H](C)c3oc4ccc(F)cc4c(=O)c3-c3cccc(F)c3)c3ncnc(N)c23)cc1F [UMBRALISIB] | 99.6 | 101 | 101 | 96.6 | 99.7 | 92.9 | 103 | 90.8 |
